Activity calls are given as the source filed them.
Key:
[1] = target: T1, Short transient receptor potential channel 4 (Mus musculus, UniProt Q9QUQ5); assay: TRPC4 positive allosteric modulators, dose response, cell-based, HEK293 TRPC4/mu-opioid, Fluo-4 calcium, EC20 DAMGO (AID 434941); type: functional
T1 sequence (Q9QUQ5 whole entry): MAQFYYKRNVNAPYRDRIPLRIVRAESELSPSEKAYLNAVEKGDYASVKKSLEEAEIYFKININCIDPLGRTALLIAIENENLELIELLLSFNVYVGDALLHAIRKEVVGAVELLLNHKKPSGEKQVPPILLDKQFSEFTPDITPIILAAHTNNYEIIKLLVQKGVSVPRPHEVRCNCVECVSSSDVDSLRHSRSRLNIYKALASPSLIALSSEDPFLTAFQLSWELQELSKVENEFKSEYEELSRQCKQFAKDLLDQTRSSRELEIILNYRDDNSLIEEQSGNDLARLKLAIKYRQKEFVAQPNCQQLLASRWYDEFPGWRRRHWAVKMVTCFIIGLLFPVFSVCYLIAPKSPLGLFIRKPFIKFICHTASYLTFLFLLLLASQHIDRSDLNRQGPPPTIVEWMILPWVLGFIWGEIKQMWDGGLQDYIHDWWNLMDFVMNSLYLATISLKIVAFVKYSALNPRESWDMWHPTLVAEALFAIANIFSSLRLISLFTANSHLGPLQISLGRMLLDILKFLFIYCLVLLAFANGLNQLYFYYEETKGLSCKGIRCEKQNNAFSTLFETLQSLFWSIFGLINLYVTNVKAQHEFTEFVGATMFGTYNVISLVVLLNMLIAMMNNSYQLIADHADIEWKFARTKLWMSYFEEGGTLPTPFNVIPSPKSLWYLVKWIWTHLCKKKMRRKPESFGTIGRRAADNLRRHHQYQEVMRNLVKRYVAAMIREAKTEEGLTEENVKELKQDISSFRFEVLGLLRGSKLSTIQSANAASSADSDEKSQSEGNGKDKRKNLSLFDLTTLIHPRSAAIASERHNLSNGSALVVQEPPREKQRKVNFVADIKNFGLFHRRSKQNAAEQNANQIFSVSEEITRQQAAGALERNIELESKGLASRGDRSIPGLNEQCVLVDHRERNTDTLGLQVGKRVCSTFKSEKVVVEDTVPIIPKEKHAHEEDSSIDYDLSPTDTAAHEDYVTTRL

[2] = HEp-2 cell cytotoxicity, dose response, cytotoxicity control for RSV inhibitor project, HTS (AID 2410); type: functional; conditions: human respiratory syncytial virus
Saccharomyces cerevisiae = assay: NALP1 inhibitor project selectivity study, Caspase-1/ASC signal blockade IC50 in S. cerevisiae (AID 488863); type: functional, organism-based
[3] = target: NACHT, LRR and PYD domains-containing protein 1 (Homo sapiens, UniProt Q9C000); assay: NALP1 inhibitors in yeast, dose response, luminescent (AID 488860); type: functional
Chain of NACHT, LRR and PYD domains-containing protein 1 (Q9C000 1-1212 limits assumed): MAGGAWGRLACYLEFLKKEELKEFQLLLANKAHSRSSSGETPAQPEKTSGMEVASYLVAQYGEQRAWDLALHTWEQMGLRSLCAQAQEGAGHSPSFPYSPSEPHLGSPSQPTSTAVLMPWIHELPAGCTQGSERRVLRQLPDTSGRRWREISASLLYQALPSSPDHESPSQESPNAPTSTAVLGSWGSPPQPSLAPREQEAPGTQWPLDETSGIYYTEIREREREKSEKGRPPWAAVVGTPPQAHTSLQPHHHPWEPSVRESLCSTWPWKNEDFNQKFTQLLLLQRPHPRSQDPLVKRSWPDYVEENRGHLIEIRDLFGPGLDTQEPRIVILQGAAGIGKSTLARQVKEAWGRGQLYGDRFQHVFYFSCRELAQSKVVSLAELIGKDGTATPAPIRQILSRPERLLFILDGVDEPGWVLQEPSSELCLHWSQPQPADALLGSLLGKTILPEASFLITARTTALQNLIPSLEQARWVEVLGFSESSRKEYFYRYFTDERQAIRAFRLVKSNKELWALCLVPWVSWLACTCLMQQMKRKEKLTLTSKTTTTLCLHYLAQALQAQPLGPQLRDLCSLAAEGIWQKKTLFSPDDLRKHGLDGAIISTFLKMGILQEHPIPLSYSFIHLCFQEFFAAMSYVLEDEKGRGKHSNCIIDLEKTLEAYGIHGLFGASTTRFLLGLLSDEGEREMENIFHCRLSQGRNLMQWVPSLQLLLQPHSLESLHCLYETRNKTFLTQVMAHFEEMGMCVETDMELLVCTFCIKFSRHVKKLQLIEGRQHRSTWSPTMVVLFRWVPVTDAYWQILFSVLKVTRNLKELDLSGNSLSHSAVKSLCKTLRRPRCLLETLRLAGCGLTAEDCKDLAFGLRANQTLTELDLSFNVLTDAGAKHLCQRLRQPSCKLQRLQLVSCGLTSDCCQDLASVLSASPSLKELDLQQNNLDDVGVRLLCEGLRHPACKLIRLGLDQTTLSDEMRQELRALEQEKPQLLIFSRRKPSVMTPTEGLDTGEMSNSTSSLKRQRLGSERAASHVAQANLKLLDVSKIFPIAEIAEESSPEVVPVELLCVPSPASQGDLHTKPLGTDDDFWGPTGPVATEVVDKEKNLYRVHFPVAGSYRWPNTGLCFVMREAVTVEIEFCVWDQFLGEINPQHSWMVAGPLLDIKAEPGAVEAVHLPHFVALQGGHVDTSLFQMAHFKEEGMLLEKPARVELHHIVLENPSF
Chain of NACHT, LRR and PYD domains-containing protein 1 (Q9C000 1213-1473 limits assumed): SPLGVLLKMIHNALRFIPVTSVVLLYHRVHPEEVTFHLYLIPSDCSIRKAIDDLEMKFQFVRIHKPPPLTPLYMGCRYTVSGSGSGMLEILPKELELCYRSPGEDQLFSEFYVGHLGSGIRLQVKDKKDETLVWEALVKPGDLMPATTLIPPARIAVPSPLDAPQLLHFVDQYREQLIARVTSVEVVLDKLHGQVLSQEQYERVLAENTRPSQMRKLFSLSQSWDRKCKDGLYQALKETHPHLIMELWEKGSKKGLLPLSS

Mu-type opioid receptor = Mu-type opioid receptor (Homo sapiens, UniProt P35372); type: functional, cell-based;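 also: U2OS cells with beta-arrestin recruitment to OPRM1 by beta-gal complementation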
Chain of Mu-type opioid receptor (P35372 whole entry): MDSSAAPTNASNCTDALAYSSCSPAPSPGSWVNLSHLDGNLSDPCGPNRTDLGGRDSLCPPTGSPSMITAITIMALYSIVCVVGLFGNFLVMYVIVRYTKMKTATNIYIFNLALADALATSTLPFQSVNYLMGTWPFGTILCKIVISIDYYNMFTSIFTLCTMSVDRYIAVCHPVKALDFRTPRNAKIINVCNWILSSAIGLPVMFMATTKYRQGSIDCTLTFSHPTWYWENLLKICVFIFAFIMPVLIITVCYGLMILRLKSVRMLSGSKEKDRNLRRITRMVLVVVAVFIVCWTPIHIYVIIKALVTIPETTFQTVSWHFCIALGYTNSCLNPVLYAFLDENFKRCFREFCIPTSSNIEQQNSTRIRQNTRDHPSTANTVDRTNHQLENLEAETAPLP

[4] = target: 5-hydroxytryptamine receptor 2A (Mus musculus, UniProt P35363); type: functional, cell-based;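 also: CHO-K1 cells with tagged receptor and beta-arrestin; agonist potency measured as compound-induced activation of the receptor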
SUMO-activating enzyme [5] = target: T2, SUMO-activating enzyme (Homo sapiens, UniProt Q9UBT2); assay: SUMOylation inhibitor hit validation, confirmation, SUMOylation inhibitor project, biochemical, AlphaScreen (AID 2018); type: functional
T2 sequence (Q9UBE0 whole entry): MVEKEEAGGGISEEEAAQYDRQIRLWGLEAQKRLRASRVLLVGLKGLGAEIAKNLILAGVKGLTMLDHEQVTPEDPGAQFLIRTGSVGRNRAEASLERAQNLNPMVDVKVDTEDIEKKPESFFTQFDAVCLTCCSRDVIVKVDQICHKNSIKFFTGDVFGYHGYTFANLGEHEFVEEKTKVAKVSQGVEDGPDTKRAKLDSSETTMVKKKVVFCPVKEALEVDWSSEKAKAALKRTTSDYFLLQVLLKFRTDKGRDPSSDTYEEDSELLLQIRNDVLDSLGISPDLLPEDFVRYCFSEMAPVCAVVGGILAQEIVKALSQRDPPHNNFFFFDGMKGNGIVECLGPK
T2 sequence (Q9UBT2 whole entry): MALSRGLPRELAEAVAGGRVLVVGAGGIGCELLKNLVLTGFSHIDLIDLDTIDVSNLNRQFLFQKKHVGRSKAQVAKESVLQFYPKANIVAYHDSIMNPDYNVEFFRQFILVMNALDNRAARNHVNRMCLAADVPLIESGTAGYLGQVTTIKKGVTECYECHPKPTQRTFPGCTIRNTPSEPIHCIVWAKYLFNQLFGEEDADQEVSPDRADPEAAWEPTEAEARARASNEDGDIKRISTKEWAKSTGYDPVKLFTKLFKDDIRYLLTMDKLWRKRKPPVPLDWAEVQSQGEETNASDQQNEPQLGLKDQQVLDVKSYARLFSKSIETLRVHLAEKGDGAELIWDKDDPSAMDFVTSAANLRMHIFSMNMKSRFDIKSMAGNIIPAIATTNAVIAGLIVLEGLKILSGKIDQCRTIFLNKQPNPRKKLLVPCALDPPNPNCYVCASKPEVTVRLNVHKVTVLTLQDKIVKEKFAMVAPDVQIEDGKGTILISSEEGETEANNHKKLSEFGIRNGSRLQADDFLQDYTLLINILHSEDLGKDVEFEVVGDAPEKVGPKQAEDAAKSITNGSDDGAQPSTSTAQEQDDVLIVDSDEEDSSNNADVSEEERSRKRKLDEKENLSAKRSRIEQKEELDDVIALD

SUMO-activating enzyme [6] = target: T2, SUMO-activating enzyme; assay: inhibitors of in vitro SUMOylation cascade, primary screen, biochemical, HTRF, uHTS (AID 2006); type: protein-complex assay
[7] = target: T3, Mannose-6-phosphate isomerase (Homo sapiens, UniProt P34949); assay: PMI enzyme inhibitors, confirmation, biochemical, fluorescence intensity (AID 1535)
T3 sequence (P34949 whole entry): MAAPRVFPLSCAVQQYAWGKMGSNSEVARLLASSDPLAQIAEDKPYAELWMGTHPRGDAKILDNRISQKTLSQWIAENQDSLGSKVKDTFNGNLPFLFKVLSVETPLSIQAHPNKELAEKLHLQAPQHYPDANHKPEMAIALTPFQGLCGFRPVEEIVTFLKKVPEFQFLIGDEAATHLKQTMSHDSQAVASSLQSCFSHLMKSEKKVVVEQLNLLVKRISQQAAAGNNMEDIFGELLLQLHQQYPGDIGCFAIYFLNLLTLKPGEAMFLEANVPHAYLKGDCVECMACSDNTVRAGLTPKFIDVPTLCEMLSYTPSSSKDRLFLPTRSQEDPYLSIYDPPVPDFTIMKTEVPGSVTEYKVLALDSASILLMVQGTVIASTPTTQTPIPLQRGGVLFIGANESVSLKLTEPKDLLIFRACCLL

Phosphomannomutase 2 = Phosphomannomutase 2 (Homo sapiens, UniProt O15305); assay: Counter screen SAR assay for PMM2 inhibitors via a fluorescence intensity assay. [Related pubchem assays (depositor defined):AID1545, AID1574]
Chain of Phosphomannomutase 2 (O15305 whole entry): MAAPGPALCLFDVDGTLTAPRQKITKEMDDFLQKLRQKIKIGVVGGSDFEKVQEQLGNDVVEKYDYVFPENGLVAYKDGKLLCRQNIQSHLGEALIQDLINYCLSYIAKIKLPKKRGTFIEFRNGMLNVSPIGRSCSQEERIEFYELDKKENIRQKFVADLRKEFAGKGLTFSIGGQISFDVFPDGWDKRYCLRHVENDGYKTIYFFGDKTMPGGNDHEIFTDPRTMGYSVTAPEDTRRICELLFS

[8] = inhibitors of firefly luciferase expression or activity, dose response, H4 neuroglioma cells, luminescence (AID 1990); type: functional, cell-based
[9] = Luminescence Cell-Based Dose Response HTS to Identify Inhibitors of 5'UTR Stem-Loop Driven Prion Protein mRNA Translation in H4 Neuroglioblastoma Cells. [Related pubchem assays: 1827 (Project Summary), 1813 (Primary HTS)]; type: functional
[10] = inhibitors of SNCA 5'UTR-driven reporter translation, confirmation, H4 neuroglioma cells, luminescence (AID 1988); type: functional, cell-based
[11] = inhibitors of intracellular T. cruzi replication, confirmation, NIH3T3 host cells, beta-gal luminescence (AID 2044); type: functional, cell-based;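 also: intracellular parasites grown in NIH/3T3 mouse fibroblasts as host cells; luminescent beta-galactosidase reporter signal from transgenic T. cruzi replicating inside host cells; inhibitors lower the luminescence signal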
[12] = microbe, parasite or virus in culture; type: functional; conditions: Mycobacterium tuberculosis
[13] = cytotoxicity toward NIH3T3 fibroblasts, dose response, counter-screen, cell-based, ATP luminescence, mouse fibroblasts (AID 2010); type: functional;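 also: cells exposed to compound for about 90 hours before reading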
[14] = target: Cystic fibrosis transmembrane conductance regulator/Golgi-associated PDZ and coiled-coil motif-containing protein (Homo sapiens, UniProt P13569+Q9HD26); assay: CAL PDZ peptide-binding inhibitors, dose response, biochemical, fluorescence polarization, Cerulean-tagged CAL PDZ, cherry-picks (AID 504773)
Chain of Cystic fibrosis transmembrane conductance regulator/Golgi-associated PDZ and coiled-coil motif-containing protein (P13569 whole entry, other chains not shown): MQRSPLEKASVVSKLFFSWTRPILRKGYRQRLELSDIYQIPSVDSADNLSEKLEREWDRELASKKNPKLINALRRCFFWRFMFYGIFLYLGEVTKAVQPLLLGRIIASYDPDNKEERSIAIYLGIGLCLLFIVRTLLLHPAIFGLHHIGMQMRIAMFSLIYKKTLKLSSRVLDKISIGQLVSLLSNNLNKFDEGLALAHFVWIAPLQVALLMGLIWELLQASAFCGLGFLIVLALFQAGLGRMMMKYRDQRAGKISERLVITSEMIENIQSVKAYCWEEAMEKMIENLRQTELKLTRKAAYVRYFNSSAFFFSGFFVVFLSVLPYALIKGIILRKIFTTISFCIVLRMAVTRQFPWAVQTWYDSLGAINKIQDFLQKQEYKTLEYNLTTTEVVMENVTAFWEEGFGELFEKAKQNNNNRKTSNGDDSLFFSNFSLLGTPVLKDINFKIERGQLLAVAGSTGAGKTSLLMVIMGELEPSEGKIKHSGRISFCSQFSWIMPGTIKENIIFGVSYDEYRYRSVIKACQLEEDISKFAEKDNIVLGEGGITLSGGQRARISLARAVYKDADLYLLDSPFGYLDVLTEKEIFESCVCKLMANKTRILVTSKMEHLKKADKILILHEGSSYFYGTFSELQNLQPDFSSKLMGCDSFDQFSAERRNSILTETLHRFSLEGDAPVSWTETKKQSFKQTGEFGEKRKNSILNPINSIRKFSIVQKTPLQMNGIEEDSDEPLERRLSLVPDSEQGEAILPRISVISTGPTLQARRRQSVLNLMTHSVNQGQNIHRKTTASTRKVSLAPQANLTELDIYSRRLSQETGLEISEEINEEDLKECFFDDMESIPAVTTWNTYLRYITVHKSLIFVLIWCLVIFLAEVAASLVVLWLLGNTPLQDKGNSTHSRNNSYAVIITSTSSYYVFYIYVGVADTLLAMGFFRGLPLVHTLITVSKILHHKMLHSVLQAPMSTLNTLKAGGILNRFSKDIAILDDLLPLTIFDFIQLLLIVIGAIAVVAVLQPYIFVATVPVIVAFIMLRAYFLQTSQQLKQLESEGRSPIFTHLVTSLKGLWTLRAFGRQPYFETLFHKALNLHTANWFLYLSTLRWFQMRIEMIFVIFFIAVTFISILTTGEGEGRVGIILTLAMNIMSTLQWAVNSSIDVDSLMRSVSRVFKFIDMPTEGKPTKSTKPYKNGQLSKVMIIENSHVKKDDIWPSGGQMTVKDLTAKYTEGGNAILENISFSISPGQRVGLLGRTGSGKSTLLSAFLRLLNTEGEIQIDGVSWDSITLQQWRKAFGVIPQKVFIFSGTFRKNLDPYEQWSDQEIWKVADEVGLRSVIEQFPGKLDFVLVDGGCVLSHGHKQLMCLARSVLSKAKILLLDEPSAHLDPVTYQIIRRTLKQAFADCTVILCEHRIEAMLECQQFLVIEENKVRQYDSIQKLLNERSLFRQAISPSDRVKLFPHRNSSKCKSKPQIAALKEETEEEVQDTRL

Bcl-2-related protein A1 = target: T4, Bcl-2-related protein A1 (Mus musculus, UniProt Q07440); type: functional;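 also: confirmatory dose–response counterscreen on Bfl-1, used to check hits from a UBC13 polyubiquitin inhibitor campaign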
T4 sequence (Q07440 whole entry): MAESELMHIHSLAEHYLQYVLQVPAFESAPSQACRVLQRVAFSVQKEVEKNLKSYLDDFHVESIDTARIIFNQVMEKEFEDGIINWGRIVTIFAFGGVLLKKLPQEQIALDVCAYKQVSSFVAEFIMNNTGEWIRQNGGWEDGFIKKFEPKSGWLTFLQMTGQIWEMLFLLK

[15] = target: T5, Ubiquitin-conjugating enzyme E2 N (Homo sapiens, UniProt P61088); type: functional
T5 sequence (P61088 whole entry): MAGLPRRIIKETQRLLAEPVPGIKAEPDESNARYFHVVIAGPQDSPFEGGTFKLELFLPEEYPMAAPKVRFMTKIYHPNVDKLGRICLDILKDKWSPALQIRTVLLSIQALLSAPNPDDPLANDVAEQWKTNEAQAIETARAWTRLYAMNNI

[16] = target: T5, Ubiquitin-conjugating enzyme E2 N; type: functional; remark: listed apart in the source
[17] = cytotoxicity in HEK-293T cells, dose response, cytotoxicity control for TCR NF-kB inhibitor project, luminescence, T-cell screen hits (AID 489026); type: functional, cell-based;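 also: cells exposed to compound about 14 hours before the viability readout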
[18] = target: T6, Type-1 angiotensin II receptor (Homo sapiens, UniProt P30556); assay: AT1 receptor agonists, dose response, selectivity assay for APJ receptor agonist project, cell-based, uHTS hits (AID 488865); type: functional;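 also: beta-arrestin recruitment to AT1 measured by enzyme fragment complementation luminescence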
T6 sequence (P30556 whole entry): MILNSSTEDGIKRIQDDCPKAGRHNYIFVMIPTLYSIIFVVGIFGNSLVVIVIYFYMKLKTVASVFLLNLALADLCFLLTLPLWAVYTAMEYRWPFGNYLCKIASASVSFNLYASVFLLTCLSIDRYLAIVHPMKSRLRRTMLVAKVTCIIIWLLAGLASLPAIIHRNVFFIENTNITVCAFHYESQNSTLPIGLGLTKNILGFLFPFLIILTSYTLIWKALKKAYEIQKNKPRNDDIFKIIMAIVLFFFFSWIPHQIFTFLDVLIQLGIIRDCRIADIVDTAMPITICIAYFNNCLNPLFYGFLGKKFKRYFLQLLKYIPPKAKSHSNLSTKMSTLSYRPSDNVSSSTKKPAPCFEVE

HEK293 = assay: inhibitors of LMP1-driven NF-kB reporter, dose response, cell-based, HEK293, luciferase, cherry-pick (AID 588343); type: functional; conditions: Homo sapiens
INS1 = assay: beta cell apoptosis inhibitors, cytokine rescue, dose response, luminescence, retest (AID 449756); type: functional, cell-based; conditions: Rattus norvegicus;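 also: cell death triggered by IL-1 beta plus TNF-alpha plus IFN-gamma mixture; protective hits raise ATP signal compared with cytokine alone wells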
[19] = target: T7, Small ubiquitin-related modifier 1 (Homo sapiens, UniProt P63165); assay: inhibitors of SUMO1 peptide binding, dose response, biochemical, fluorescence polarization, uHTS hits (AID 624382); type: functional; conditions: read-out: IC50_Mean
T7 sequence (P63165 whole entry): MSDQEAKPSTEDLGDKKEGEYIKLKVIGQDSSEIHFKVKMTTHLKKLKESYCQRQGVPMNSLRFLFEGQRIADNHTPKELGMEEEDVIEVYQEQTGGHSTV

[20] = target: T7, Small ubiquitin-related modifier 1; assay: inhibitors of SUMO1 partner interactions, dose response, biochemical, FRET (AID 624383); type: functional; conditions: read-out: IC50_Mean
[21] = HeLa cell cytotoxicity, dose response, cytotoxicity control for MgcRacGAP inhibitor project (AID 624300); type: functional
[22] = target: T8, Rac GTPase-activating protein 1 (Homo sapiens, UniProt Q9H0H5); assay: MgcRacGAP GTPase-activating activity inhibitors, confirmation, biochemical, ADP Hunter fluorescence, primary and confirmatory (AID 624330); type: functional
T8 sequence (Q9H0H5 whole entry): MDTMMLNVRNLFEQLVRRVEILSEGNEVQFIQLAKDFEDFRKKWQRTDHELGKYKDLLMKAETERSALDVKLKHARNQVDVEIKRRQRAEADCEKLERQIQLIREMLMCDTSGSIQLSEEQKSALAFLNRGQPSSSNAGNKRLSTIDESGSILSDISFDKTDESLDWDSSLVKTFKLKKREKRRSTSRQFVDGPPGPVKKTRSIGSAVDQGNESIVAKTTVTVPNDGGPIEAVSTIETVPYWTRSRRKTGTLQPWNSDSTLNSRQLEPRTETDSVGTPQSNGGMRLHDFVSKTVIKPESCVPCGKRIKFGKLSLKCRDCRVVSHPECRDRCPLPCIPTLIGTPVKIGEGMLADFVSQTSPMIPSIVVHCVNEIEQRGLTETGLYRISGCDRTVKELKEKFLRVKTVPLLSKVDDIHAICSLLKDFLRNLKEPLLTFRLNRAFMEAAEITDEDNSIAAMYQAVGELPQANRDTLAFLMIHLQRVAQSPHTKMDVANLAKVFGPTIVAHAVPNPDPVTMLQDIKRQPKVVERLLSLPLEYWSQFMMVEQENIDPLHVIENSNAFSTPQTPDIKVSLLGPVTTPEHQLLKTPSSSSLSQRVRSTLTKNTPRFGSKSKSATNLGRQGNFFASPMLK

[23] = A549 cell cytotoxicity, dose response, cytotoxicity control, plate reader, cherry-pick, antagonist series (AID 743412); type: functional, cell-based
[24] = HepG2 cell cytotoxicity, dose response, cytotoxicity control, plate reader, cherry-pick, antagonist series (AID 743416); type: functional, cell-based
[25] = LGR2 antagonists, dose response, cell-based, HEK293, CRE-luciferase reporter, cherry pick, set 2 (AID 743343); type: functional;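 also: transfected cells were stimulated with diluted bursicon conditioned medium after compound addition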
[26] = MC4R antagonists, dose response, counter-screen for LGR2 antagonist project, cell-based, plate reader, cherry pick (AID 743444); type: functional;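 also: transfected HEK 293 cells stimulated with alpha-MSH peptide; potency of inhibitors of the alpha-MSH evoked signal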
[27] = HEK293 cell cytotoxicity, dose response, cytotoxicity control, plate reader, cherry-picked samples (AID 743446); type: functional, cell-based

## c1ccc(-c2nc(N3CCNCC3)nc3ccccc23)cc1
[1]
  EC50: 300 nM (active)

## COc1ccc(C)cc1NC(=O)c1ccc(CN2CCN(c3ccccc3)CC2)cc1
[2]
  CC50: 21.4 µM (active)
Saccharomyces cerevisiae
  IC50: > 100 µM (inactive)
[3]
  IC50: > 100 µM (inactive)
Mu-type opioid receptor
  EC50: 92.5 µM (inactive)
[4]
  EC50: 76.1 µM (inactive)

## CCOC(=O)C1CCCN(Cc2ccc(OCC)cc2)C1 (centres undefined)
Saccharomyces cerevisiae
  IC50: > 100 µM (inactive)
[3]
  IC50: > 100 µM (inactive)

## COc1ccc(NC(=O)CN2C(=O)S/C(=C/c3cccn3-c3ccc(C(=O)O)cc3)C2=O)cc1
SUMO-activating enzyme [5]
  IC50: 5.52 µM (active)
SUMO-activating enzyme [6]
  IC50: 10.5 µM (active)

## FC(F)(F)c1ccc(/N=c2\ssnc2Cl)cc1
[7]
  IC50: 32.7 µM (active)
Phosphomannomutase 2
  IC50: > 100 µM (inactive)

## COc1ccc(/C=N/Nc2cc(C)nc3ccc(OC)cc23)c(OC)c1
[8]
  EC50: 8.87 µM (active)
[9]
  EC50: 8.29 µM (active)
[10]
  EC50: 8.01 µM (active)
[11]
  EC50: 720 nM (active)
[12]
  CC50: 1.77 µM (active)
[13]
  EC50: 7.61 µM (active)
[14]
  AC50: 38.7 µM (active)
Bcl-2-related protein A1
  IC50: 11.4 µM (active)
[15]
  IC50: 9.1 µM (active)
[16]
  IC50: 6.39 µM (active)
[17]
  IC50: 28.1 µM (inactive)
[18]
  EC50: > 100 µM (inactive)
HEK293
  AC50: 3.43 µM (active)
INS1
  AC50: 7.95 µM (active)
[19]
  IC50: > 66.6 µM (inactive)
[20]
  IC50: 9.36 µM (active)
[21]
  CC50: 17.9 µM (active)
[22]
  IC50: 36.4 µM (active)
[23]
  AC50: 4.32 µM (active)
[24]
  AC50: 3.97 µM (active)
[25]
  AC50: 8.34 µM (active)
[26]
  AC50: 10.8 µM (active)
[27]
  AC50: 9.83 µM (active)

## Sc1nnc(-c2cccc(Cl)c2)n1/N=C/c1ccc(-c2ccccc2Br)o1
[2]
  CC50: > 50 µM (active)
SUMO-activating enzyme [5]
  IC50: 12.6 µM (active)
SUMO-activating enzyme [6]
  IC50: 28 µM (active)

## Oc1[nH]nc(-c2ccccc2)c1/C=N/c1ccc(Cl)cc1
[1]
  EC50: 2110 nM (active)

Reference: ChEMBL document CHEMBL1201862, “PubChem BioAssay data set” (2004)
